In series [1] the test system is AD38 cells. Put plainly: AD38 viability normalized to DMSO control. Format: cell-based. Particulars: 10 μM compound, vs DMSO control. How it is done: (§1) AD38 cells were then re-suspended with 10 mL of treatment medium and counted. Wells of a collagen coated 96-well NUNC microtiter plate were seeded at 50,000/well in 180 μL of treatment medium, and 20 μL of either 10% DMSO (Control) or a 10× solution of test compound in 10% DMSO in treatment media was added for a final compound concentration 1, 3, or 10 μM (1.0% final [DMSO]) and plates were incubated for 6 days at 37° C.

Series [2] deals with HBV viral load, AD38 cells. In words: Activity of test compounds on viral production from AD38 cells (viral load by quantitative PCR of the core sequence in supernatant). Format: cell-based, Hepatitis B virus. Particulars: 10 μM compound, 6 days at 37° C., vs DMSO control wells; for activity at 10 µM: Hepatitis B virus, 144 h, read-out: AD38 Viral Load (CpAM/DMSO %) at 10 μM. On the procedure: as §1
Subsequently viral load production was assayed by quantitative PCR of the core sequence. Briefly, 5 μL of clarified supernatant was added to a PCR reaction mixture that contained forward primers HBV-f 5′-CTGTGCCTTGGGTGGCTTT-3′, Reverse primers HBV-r 5′-[…]-3′ and Fluorescent TaqMan™ Probes HBV-probe 5′-FAM/AGCTCCAAA/ZEN/[…]/3IABkFQ-3′ in Quanta Biosciences PerfeCTa® qPCR Toughmix®, and was subsequently on an Applied Biosystems VIIA7 in a final volume of 20 μL. The PCR mixture was incubated at 45° C. for 5 minutes, then 95° C. for 10 min, followed by 40 cycles of 10 seconds at 95° C. and 20 seconds at 60° C. Viral load was quantitated against known standards by using ViiA™ 7 Software. Viral load in the supernatant from wells with treated cells were compared against viral load in supernatant from DMSO control wells (≥3 per plate).

Read-outs that look alike come from different tables or passages of the source.

This is an account of results in patent publication US10273228B2, “Hepatitis B viral assembly effectors” (Indiana University Research and Technology Corporation, priority 2015, dated 2019).

Take `COC(=O)Cc1ccc(S(=O)(=O)N2CCN(c3nc(Nc4ccc(F)cc4)cc(C(F)(F)F)n3)CC2)cc1` [Compound 1408, methyl 2-(4-((4-(4-((4-fluorophenyl)amino)-6-(trifluoromethyl)pyrimidin-2-yl)piperazin-1-yl)sulfonyl)phenyl) acetate]: the “AD38 Viability Normalized Result (CPAM/DMSO %) at 10 μM” value in series [1] (Table 9) is given as 107%. Besides, in series [2] (Table 9), the “AD38 Viral Load (CpAM/DMSO %) at 10 μM” value is 8%.

As to `CN(C)c1cc(Oc2ccc(F)cc2)nc(N2CCN(S(=O)(=O)c3ccccc3)CC2)n1` [Compound 1299], the “AD38 Viability Normalized Result (CPAM/DMSO %) at 10 μM” value in series [1] (Table 6) turned out to be 112%. The activity at 10 µM in series [2] (Table 6) stood at 54%.

As to `COc1ccc(S(=O)(=O)N2CCN(c3nc(Nc4ccc(C)cc4)cc(-n4ccnc4)n3)CC2)cc1` [Compound 1229], in series [1] (Table 6), the “AD38 Viability Normalized Result (CPAM/DMSO %) at 10 μM” value is given as 92%. In addition, the activity at 10 µM in series [2] (Table 6) stood at 13%.

For `O=S(=O)(c1ccc(OC(F)(F)F)cc1)N1CCN(c2nc(Nc3nccs3)cc(C(F)(F)F)n2)CC1` [Compound 1418, N-(2-(4-((4-(trifluoromethoxy)phenyl)sulfonyl)piperazin-1-yl)-6-(trifluoromethyl)pyrimidin-4-yl) thiazol-2-amine], the “AD38 Viability Normalized Result (CPAM/DMSO %) at 10 μM” value in series [1] (Table 9) was determined as 100%. Further, the activity at 10 µM in series [2] (Table 9) amounted to 120%.

For the compound `COC(=O)c1ccc(S(=O)(=O)N2CCN(c3nc(C)cc(Nc4ccc(F)cc4)n3)CC2)cc1` [Compound 1382, methyl 4-((4-(4-((4-fluorophenyl)amino)-6-methylpyrimidin-2-yl)piperazin-1-yl)sulfonyl) benzoate], the “AD38 Viability Normalized Result (CPAM/DMSO %) at 10 μM” value in series [1] (Table 9) turned out to be 107%. In addition, the activity at 10 µM in series [2] (Table 9) was 34%.

Turning to `O=S(=O)(c1ccccc1)N1CCN(c2nc(Nc3ccc(F)cc3)cc(-c3nccs3)n2)CC1` [Compound 1360], the “AD38 Viability Normalized Result (CPAM/DMSO %) at 10 μM” value in series [1] (Table 9) amounted to 94%. The activity at 10 µM in series [2] (Table 9) is 28%.

`COc1ccc(S(=O)(=O)N2CCN(c3nc(C)cc(Nc4ccc(C#N)cc4)n3)C(=O)C2)cc1` [Compound 1352]: the “AD38 Viability Normalized Result (CPAM/DMSO %) at 10 μM” value in series [1] (Table 9) is listed as 96%. Besides, the activity at 10 µM in series [2] (Table 9) stood at 89%.

With `COc1ccc(S(=O)(=O)N2CCN(c3nc(Nc4ccc(C)cc4)cc(N4CCCC4)n3)CC2)cc1` [Compound 1144], the “AD38 Viability Normalized Result (CPAM/DMSO %) at 10 μM” value in series [1] (Table 6) is 100%. In addition, the activity at 10 µM in series [2] (Table 6) is 12%.

`COc1ccc(S(=O)(=O)N2CCN(c3cc(C)nc(Nc4ccc(C)cc4)n3)CC2)cc1` [Compound 1150]: the “AD38 Viability Normalized Result (CPAM/DMSO %) at 10 μM” value in series [1] (Table 6) is on record as 89%. Besides, the activity at 10 µM in series [2] (Table 6) is 4%.

Consider `O=S(=O)(c1ccc(OC(F)(F)F)cc1)N1CCCN(c2nc(Nc3ccc(F)cc3)cc(C(F)(F)F)n2)CC1` [Compound 1419], for which the “AD38 Viability Normalized Result (CPAM/DMSO %) at 10 μM” value in series [1] (Table 9) is 93%. The activity at 10 µM in series [2] (Table 9) amounted to 11%.

Regarding `COc1ccc(S(=O)(=O)N2CCN(c3nc(Nc4ccc(C)cc4)cc(N4CCCC4=O)n3)CC2)cc1` [Compound 1212], in series [1] (Table 6), the “AD38 Viability Normalized Result (CPAM/DMSO %) at 10 μM” value is 94%. In addition, in series [2] (Table 6), the activity at 10 µM stood at 77%.

Take `COCCOc1ccc(S(=O)(=O)N2CCN(c3nc(Nc4ccc(F)cc4)cc(C(F)(F)F)n3)CC2)cc1` [Compound 1407]: the “AD38 Viability Normalized Result (CPAM/DMSO %) at 10 μM” value in series [1] (Table 9) came to 91%. In addition, the activity at 10 µM in series [2] (Table 9) worked out at 12%.

Turning to `Cc1ccc(Nc2cc(C)nc(N3CCN(S(=O)(=O)c4cn[nH]c4)CC3)n2)cc1` [Compound 1238], the “AD38 Viability Normalized Result (CPAM/DMSO %) at 10 μM” value in series [1] (Table 6) is reported as 102%. For the same compound, the activity at 10 µM in series [2] (Table 6) is 26%.

For the compound `COc1ccc(S(=O)(=O)N2CCN(c3nc(C)cc(S(=O)(=O)c4ccc(C)cc4)n3)CC2)cc1` [Compound 1160, 2-(4-((4-methoxyphenyl)sulfonyl)piperazin-1-yl)-4-methyl-6-tosylpyrimidine], the “AD38 Viability Normalized Result (CPAM/DMSO %) at 10 μM” value in series [1] (Table 6) is reported as 110%. For the same compound, the activity at 10 µM in series [2] (Table 6) came to 60%.

With `CN(C)c1cc(Oc2ccc(F)cc2)nc(N2CCN(S(=O)(=O)c3ccc(F)cc3)CC2)n1` [Compound 1297], in series [1] (Table 6), the “AD38 Viability Normalized Result (CPAM/DMSO %) at 10 μM” value was determined as 103%. Also, in series [2] (Table 6), the activity at 10 µM was 59%.

With `COc1ccc(S(=O)(=O)N2CCN(c3nc(NCCO)cc(Nc4ccc(C)cc4)n3)CC2)cc1` [Compound 1232], in series [1] (Table 6), the “AD38 Viability Normalized Result (CPAM/DMSO %) at 10 μM” value was determined as 96%. Also, the activity at 10 µM in series [2] (Table 6) was 83%.

For `CCCCOc1ccc(S(=O)(=O)N2CCN(c3nc(Nc4ccc(C#N)cc4)cc(C(F)(F)F)n3)CC2)cc1` [Compound 1334], the “AD38 Viability Normalized Result (CPAM/DMSO %) at 10 μM” value in series [1] (Table 9) turned out to be 102%. For the same compound, the activity at 10 µM in series [2] (Table 9) worked out at 2%.

`CCOC(=O)COc1ccc(S(=O)(=O)N2CCN(c3nc(C)cc(Nc4ccc(F)cc4)n3)CC2)cc1` [Compound 1385, ethyl 2-(4-((4-(4-((4-fluorophenyl)amino)-6-methylpyrimidin-2-yl)piperazin-1-yl)sulfonyl)phenoxy) acetate]: the “AD38 Viability Normalized Result (CPAM/DMSO %) at 10 μM” value in series [1] (Table 9) is 94%. For the same compound, in series [2] (Table 9), the activity at 10 µM is 105%.

With `N#Cc1ccc(Nc2cc(-c3cncs3)nc(N3CCN(S(=O)(=O)c4ccccc4)CC3)n2)cc1` [Compound 1374], the “AD38 Viability Normalized Result (CPAM/DMSO %) at 10 μM” value in series [1] (Table 9) is 107%. Also, the activity at 10 µM in series [2] (Table 9) turned out to be 7%.

With `COc1ccc(S(=O)(=O)N2CCN(c3nc(C)cc(Sc4ccc(C)cc4)n3)CC2)cc1` [Compound 1159], the “AD38 Viability Normalized Result (CPAM/DMSO %) at 10 μM” value in series [1] (Table 6) worked out at 95%. The activity at 10 µM in series [2] (Table 6) came out at 81%.

For `CN(C)c1cc(Nc2ccc(F)cc2)nc(N2CCN(S(=O)(=O)c3ccc(C(F)(F)F)cc3)CC2)n1` [Compound 1303], the “AD38 Viability Normalized Result (CPAM/DMSO %) at 10 μM” value in series [1] (Table 6) was 35%. Moreover, in series [2] (Table 6), the activity at 10 µM was 14%.

Consider `CCCCOc1ccc(S(=O)(=O)N2CCN(c3nc(C)cc(Nc4ccc(F)cc4)n3)CC2)cc1` [Compound 1337], for which the “AD38 Viability Normalized Result (CPAM/DMSO %) at 10 μM” value in series [1] (Table 9) was found to be 93%. Moreover, the activity at 10 µM in series [2] (Table 9) is 34%.

As for `N#Cc1ccc(Nc2cc(-c3nccs3)nc(N3CCN(S(=O)(=O)c4ccc(F)cc4)CC3)n2)cc1` [Compound 1365], the “AD38 Viability Normalized Result (CPAM/DMSO %) at 10 μM” value in series [1] (Table 9) worked out at 98%. Further, the activity at 10 µM in series [2] (Table 9) was 53%.

In the case of `Cc1cc(Nc2ccc(F)cc2)nc(N2CCN(S(=O)(=O)c3ccc(OCCN(C)C)cc3)CC2)n1` [Compound 1378, 2-(4-((4-(2-(dimethylamino)ethoxy)phenyl)sulfonyl)piperazin-1-yl)-N-(4-fluorophenyl)-6-methylpyrimidin-4-amine], in series [1] (Table 9), the “AD38 Viability Normalized Result (CPAM/DMSO %) at 10 μM” value is 1%. Further, the activity at 10 µM in series [2] (Table 9) was 13%.

Turning to `CCOC(=O)C(C)(C)Oc1ccc(S(=O)(=O)N2CCN(c3nc(C)cc(Nc4ccc(F)cc4)n3)CC2)cc1` [Compound 1404, ethyl 2-(4-((4-(4-((4-fluorophenyl)amino)-6-methylpyrimidin-2-yl)piperazin-1-yl)sulfonyl)phenoxy)-2-methylpropanoate], in series [1] (Table 9), the “AD38 Viability Normalized Result (CPAM/DMSO %) at 10 μM” value amounted to 96%. Moreover, in series [2] (Table 9), the activity at 10 µM amounted to 90%.

Regarding `CC(C)c1cc(Oc2ccc(F)cc2)nc(N2CCN(S(=O)(=O)c3ccccc3)CC2)n1` [Compound 1301], in series [1] (Table 6), the “AD38 Viability Normalized Result (CPAM/DMSO %) at 10 μM” value was determined as 102%. Also, the activity at 10 µM in series [2] (Table 6) was 63%.

Regarding `Cc1ccc(Nc2cc(C)nc(N3CCN(S(=O)(=O)c4ccncc4)CC3)n2)cc1` [Compound 1258], the “AD38 Viability Normalized Result (CPAM/DMSO %) at 10 μM” value in series [1] (Table 6) was found to be 105%. For the same compound, the activity at 10 µM in series [2] (Table 6) came to 50%.

On to `COc1ccc(S(=O)(=O)N2CCN(c3nc(Nc4ccc(C)cc4)cc(N(C)C(C)(C)C)n3)CC2)cc1` [Compound 1273, N^4-(tert-butyl)-2-(4-((4-methoxyphenyl)sulfonyl)piperazin-1-yl)-N^4-methyl-N^6-(p-tolyl) pyrimidine-4,6-diamine], for which, in series [1] (Table 6), the “AD38 Viability Normalized Result (CPAM/DMSO %) at 10 μM” value was 98%. Moreover, in series [2] (Table 6), the activity at 10 µM turned out to be 16%.

On to `COc1ccc(S(=O)(=O)N2CCN(c3nc(C)cc(Nc4ccc(-c5ccccc5)cc4)n3)CC2)cc1` [Compound 1201], for which the “AD38 Viability Normalized Result (CPAM/DMSO %) at 10 μM” value in series [1] (Table 6) amounted to 101%. For the same compound, in series [2] (Table 6), the activity at 10 µM was 90%.

On to `CCOC(=O)C(C)(C)Oc1ccc(S(=O)(=O)N2CCN(c3nc(Nc4ccc(F)cc4)cc(C(F)(F)F)n3)CC2)cc1` [Compound 1406, ethyl 2-(4-((4-(4-((4-fluorophenyl)amino)-6-(trifluoromethyl)pyrimidin-2-yl)piperazin-1-yl)sulfonyl)phenoxy)-2-methylpropanoate], for which, in series [1] (Table 9), the “AD38 Viability Normalized Result (CPAM/DMSO %) at 10 μM” value was determined as 98%. Moreover, in series [2] (Table 9), the activity at 10 µM stood at 63%.

For the compound `Cc1cc(Nc2ccc(F)cc2)nc(N2CCN(S(=O)(=O)c3ccc(OCCCC(=O)O)cc3)CC2)n1` [Compound 1394, 4-(4-((4-(4-((4-fluorophenyl)amino)-6-methylpyrimidin-2-yl)piperazin-1-yl)sulfonyl)phenoxy) butanoic acid], the “AD38 Viability Normalized Result (CPAM/DMSO %) at 10 μM” value in series [1] (Table 9) is listed as 79%. The activity at 10 µM in series [2] (Table 9) amounted to 32%.
